Assay [1] concerns the target T1, Human plasma kallikrein (Homo sapiens, UniProt P03952).
T1 construct: yields a heavy chain (371 amino acids) and a light chain (248 amino acids); purchased Enzyme Research Laboratories
Description: Plasma Kallikrein Assay. The assay is classed as biochemical. The note with it: purified Human plasma kallikrein 0.5 nM, substrate Acetyl-K-P-R-AFC; read-out: PKal IC50. Summed up:
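Purified human plasma kallikrein (0.5 nM) hydrolysing fluorogenic Acetyl-K-P-R-AFC ([…]) in 50 mM HEPES pH 7.4, 150 mM NaCl, 5 mM CaCl2, 0.1% PEG 8000, at rt or 37 °C after enzyme–inhibitor equilibration. IC50 from four-parameter logistic fit; Ki via Cheng–Prusoff.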

Assay [2] concerns the target T2, human factor XIa (Homo sapiens, UniProt P03951).
T2 construct: with human (0.04 nM) factor XIa
Description: Factor XIa Assay. The assay is classed as biochemical. The following applies: human factor XIa 0.04 nM, substrate GPR-AFC, 25° C.

pIC50: −log10 of the molar value.

T2 sequence (P03951 388-625 limits assumed): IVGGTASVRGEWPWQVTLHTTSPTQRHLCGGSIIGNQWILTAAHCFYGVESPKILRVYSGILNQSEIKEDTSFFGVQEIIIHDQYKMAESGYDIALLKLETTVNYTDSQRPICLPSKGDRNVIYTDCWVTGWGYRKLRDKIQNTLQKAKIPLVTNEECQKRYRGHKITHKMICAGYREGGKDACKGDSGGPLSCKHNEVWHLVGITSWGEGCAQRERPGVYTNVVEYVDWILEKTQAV
T2 sequence (P03951 19-387 partner limits assumed): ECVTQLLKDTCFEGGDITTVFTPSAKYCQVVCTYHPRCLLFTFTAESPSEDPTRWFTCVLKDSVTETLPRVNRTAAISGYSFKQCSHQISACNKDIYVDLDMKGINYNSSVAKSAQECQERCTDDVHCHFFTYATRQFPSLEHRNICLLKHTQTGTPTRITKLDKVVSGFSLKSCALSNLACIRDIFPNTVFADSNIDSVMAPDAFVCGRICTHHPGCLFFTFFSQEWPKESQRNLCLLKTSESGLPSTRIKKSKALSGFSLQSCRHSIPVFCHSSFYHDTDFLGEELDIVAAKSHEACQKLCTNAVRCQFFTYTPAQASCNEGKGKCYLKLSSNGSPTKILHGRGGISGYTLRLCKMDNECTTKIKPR
T1 sequence (P03952 391-638 limits assumed): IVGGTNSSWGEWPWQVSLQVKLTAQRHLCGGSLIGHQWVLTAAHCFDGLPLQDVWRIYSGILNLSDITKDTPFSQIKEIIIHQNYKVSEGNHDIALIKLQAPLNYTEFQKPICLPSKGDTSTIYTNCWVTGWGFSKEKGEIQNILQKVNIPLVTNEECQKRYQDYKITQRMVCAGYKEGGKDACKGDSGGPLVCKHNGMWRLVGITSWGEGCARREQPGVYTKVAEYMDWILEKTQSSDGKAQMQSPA
T1 sequence (P03952 20-390 partner limits assumed): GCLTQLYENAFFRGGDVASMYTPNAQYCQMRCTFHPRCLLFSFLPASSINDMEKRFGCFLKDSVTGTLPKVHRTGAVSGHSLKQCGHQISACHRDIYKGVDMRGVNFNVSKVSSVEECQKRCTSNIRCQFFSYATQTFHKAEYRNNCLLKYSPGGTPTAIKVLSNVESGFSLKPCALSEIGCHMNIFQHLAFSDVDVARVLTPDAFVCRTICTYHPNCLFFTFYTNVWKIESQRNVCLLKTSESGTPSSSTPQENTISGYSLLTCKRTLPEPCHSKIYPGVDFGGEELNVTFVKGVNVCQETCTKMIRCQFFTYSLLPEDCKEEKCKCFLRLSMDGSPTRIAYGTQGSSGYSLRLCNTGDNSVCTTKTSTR

Usually pIC50 stands for the IC50 on a negative log10 scale, so that one unit is a factor of ten. For `O=C1Nc2ccc(Cl)c(F)c2[C@@]2(CCCN(C(=O)c3nnc(C(CC(F)(F)F)c4ccccc4)[nH]3)C2)O1` (single isomer, unassigned) [Example 99], the pIC50 is 8.01 in assay [1] and 5.86 in assay [2].
The matching figures for `C[C@H](O)[C@@H](c1ccccc1)n1cc(C(=O)N2CCC[C@@]3(C2)OC(=O)Nc2ccc(Cl)c(F)c23)cn1` [Example 9, (R)-6-Chloro-5-fluoro-1′-(1-((1R,2S)-2-hydroxy-1-phenylpropyl)-1H-pyrazole-4-carbonyl)spiro[benzo[d][1,3]oxazine-4,3′-piperidin]-2(1H)-one]: 7.53 and 5.25.
In the same order, the values of `CCC(F)(c1ccc(F)cc1)c1n[nH]c(C(=O)N2CCC[C@@]3(C2)OC(=O)Nc2ccc(Cl)c(F)c23)n1` (single isomer, unassigned) [Example 129, (3′R)-6-Chloro-5-fluoro-1′-(3-(1-fluoro-1-(4-fluorophenyl)propyl)-1H-1,2,4-triazole-5-carbonyl)spiro[benzo[d][1.3]oxazine-4,3′-piperidin]-2(1H)-one] are 8.05 and 5.37.
In the same order, the values of `CC[C@H](c1cc(C)c2nc[nH]c2c1)c1n[nH]c(C(=O)N2CCC[C@@]3(C2)OC(=O)Nc2ccc(Cl)c(F)c23)n1` [Example 110, (R)-6-Chloro-5-fluoro-1′-(3-((R)-1-(4-methyl-1H-benzo[d]imidazol-6-yl)propyl)-1H-1,2,4-triazole-5-carbonyl)spiro[benzo[d][1.3]oxazine-4,3′-piperidin]-2(1H)-one] are 9.00 and 5.91.
In the case of `C[C@@H](O)[C@H](c1ccccc1)n1cc(C(=O)N2CCC[C@@]3(C2)OC(=O)Nc2ccc(Cl)c(F)c23)cn1` [Example 16, (R)-6-Chloro-5-fluoro-1′-(1-((1S,2R)-2-hydroxy-1-phenylpropyl)-1H-pyrazole-4-carbonyl)spiro[benzo[d][1,3]oxazine-4,3′-piperidin]-2(1H)-one], the pIC50 was 7.39 in assay [1] and 5.84 in assay [2].
In the same order, the values of `CCC(c1ccc(F)cc1)c1c[nH]c(C(=O)N2CC[C@@]3(C2)OC(=O)Nc2ccc(Cl)c(F)c23)n1` (single isomer, unassigned) [Example 66, (4R)-6-Chloro-5-fluoro-1′-(4-((S or R)-1-(4-fluorophenyl)propyl)-1H-imidazole-2-carbonyl)spiro[benzo[d][1,3]oxazine-4,3′-pyrrolidin]-2(1H)-one] are 7.49 and 5.87.
The matching figures for `CCCCC(O)(c1ccc(F)cc1)c1ncc(C(=O)N2CCC[C@@]3(C2)OC(=O)Nc2ccc(Cl)c(F)c23)[nH]1` (stereo partly drawn) [Example 81, (3′R)-6-Chloro-5-fluoro-1′-(2-(1-(4-fluorophenyl)-1-hydroxypentyl)-1H-imidazole-5-carbonyl)spiro[benzo[d][1.3]oxazine-4,3′-piperidin]-2(1H)-one]: 8.06 and 5.64.
The matching figures for `O=C1Nc2ccc(Cl)c(F)c2[C@@]2(CCCN(C(=O)c3nnc(C4(c5ccc(F)cc5)CCC4)[nH]3)C2)O1` [Example 88, (R)-6-Chloro-5-fluoro-1′-(5-(1-(4-fluorophenyl)cyclobutyl)-4H-1,2,4-triazole-3-carbonyl)spiro[benzo[d][1,3]oxazine-4,3′-piperidin]-2(1H)-one]: 7.86 and 5.35.
`CCC(O)(c1ccc(F)cc1)c1n[nH]c(C(=O)N2CCC[C@@]3(C2)OC(=O)Nc2ccc(Cl)c(F)c23)n1` (single isomer, unassigned) [Example 128, (R)-6-Chloro-5-fluoro-1′-(3-(UR or S)-1-(4-fluorophenyl)-1-hydroxypropyl)-1H-1,2,4-triazole-5-carbonyl)spiro[benzo[d][1,3]oxazine-4,3′-piperidin]-2(1H)-one]: the pIC50 in assay [1] was 8.40; in assay [2], 6.42.
In the same order, the values of `CC[C@H](c1ccc(F)cc1)c1ncc(C(=O)N2CCC[C@@]3(C2)OC(=O)Nc2ccc(Cl)c(F)c23)[nH]1` (single isomer, unassigned) [Example 80] are 8.72 and 6.75.
For the molecule `O=C1Nc2ccc(Cl)c(F)c2[C@@]2(CCCN(C(=O)c3nnc(C(CC(F)(F)F)c4cccc(Cl)c4)[nH]3)C2)O1` (single isomer, unassigned) [Example 100], the pIC50 in assay [1] is 8.66; in assay [2], 5.84.
On to `CCC(c1ccnc(C(F)(F)F)c1)c1c[nH]c(C(=O)N2CCC[C@@]3(C2)OC(=O)Nc2ccc(Cl)c(F)c23)n1` (single isomer, unassigned) [Example 74, (R)-6-Chloro-5-fluoro-1′-(4-((S or R)-1-(2-(trifluoromethyl)pyridin-4-yl)propyl)-1H-imidazole-2-carbonyl)spiro[benzo[d][1,3]oxazine-4,3′-piperidin]-2(1H)-one], for which the pIC50 in assay [1] is 7.97; in assay [2], 5.56.
In the same order, the values of `O=C1Nc2ccc(Cl)c(F)c2[C@@]2(CCCN(C(=O)c3nnc(C(c4ccccc4)C4CC4)[nH]3)C2)O1` (single isomer, unassigned) [Example 106] are 8.80 and 6.10.
The matching figures for `O=C1Nc2ccc(Cl)c(F)c2[C@@]2(CCCN(C(=O)c3nnc(C4(c5ccc(F)cc5)CCOCC4)[nH]3)C2)O1` [Example 94, (R)-6-Chloro-5-fluoro-1′-(5-(4-(4-fluorophenyl)tetrahydro-2H-pyran-4-yl)-4H-1,2,4-triazole-3-carbonyl)spiro[benzo[d][1,3]oxazine-4,3′-piperidin]-2(1H)-one]: 8.25 and 5.60.
The matching figures for `CCC(c1ccc(F)cc1)c1nnc(C(=O)N2CC(C)(C)C[C@@]3(C2)OC(=O)Nc2ccc(Cl)c(F)c23)[nH]1` (single isomer, unassigned) [Example 103]: 8.15 and 5.71.
Consider `CCC(c1ccc2c(c1)OCO2)n1cc(C(=O)N2CCC[C@@]3(C2)OC(=O)Nc2ccc(Cl)c(F)c23)cn1` (single isomer, unassigned) [Example 33], for which the pIC50 in assay [1] is 8.38; in assay [2] it was 5.32.
In the same order, the values of `O=C1Nc2ccc(Cl)c(F)c2[C@@]2(CCCN(C(=O)c3cnn([C@H](CC4CC4)c4ccccc4)c3)C2)O1` (single isomer, unassigned) [Example 2] are 8.49 and 6.69.
In the same order, the values of `O=C1Nc2ccc(Cl)c(F)c2[C@@]2(CCCN(C(=O)c3cnc([C@@H](O)c4ccc(F)cc4)[nH]3)C2)O1` [Example 77] are 7.25 and 5.09.

The values above are taken from patent US20250099478A1, “PLASMA KALLIKREIN INHIBITORS” (Merck Sharp & Dohme LLC, priority 2022, published 2025).
